Assay results from patent US6495131B1, “Interleukin-3 gene therapy for cancer” (priority 1998, dated 2002).

Tested on: ROS-1 osteosarcoma
Experiment: Tumor growth of ROS-1 osteosarcoma in hindlimb after ILP or intra-tumoral injection
Format: in vivo
Conditions: ROS-1, ILP 15 minutes, 1.10^9 iu vector plus 50 μg TNFα, 40 μg melphalan or 200 μg doxorubicin per rat
Method: The rapidly growing ROS-1 osteosarcoma originated spontaneously in the tibia of a Wag/Rij rat (Barendsen et al. (1987)). The ROS-1 was implanted subcutaneously in the flank of donor Wag/Rij rats and passaged serially. The ROS-1 has a tumor doubling time of 5 days.
Fragments of the BN175 or ROS-1 (osteo)sarcoma were subcutaneously implanted into the right hindlimb of the experimental animals just above the ankle. The tumor size was measured regularly by caliper measurement in two dimensions. When the tumor reached a volume of 180-524 mm^3 (diameter between 7 and 10 mm) an isolated limb perfusion (ILP) with the recombinant adenoviral vector was performed. As a control, tumor bearing rats underwent ILP without the addition of said recombinant adenoviral vectors (termed sham ILP). An other group of tumor bearing rats underwent a direct intra-tumor injection with said recombinant adenoviral vector. The tumor volume was between 180-524 mm^3). After ILP or direct intra-tumor injection the tumor size was measured every (mon-fri)day.
Surgical procedures were performed under Hypnorm anaesthesia. […] After an incision parallel to the inguinal ligament the femoral and vein were approached and cannulated with silastic tubing (0.30 mm ID, 0.64 mm OD; 0.64 mm, 1.19 OD, respectively, Degania Silicone, Degania Bet, Israel). Collaterals were temporarily occluded by the application of a tourniquet around the groin, which was fixed to the inguinal ligament. An oxygenation reservoir and a roller pump (Masterflex) were included in the vascularly isolated circuit, which was, initially, perfused with haemaccel (Behring Pharma, Amsterdam, The Netherlands) for 3 minutes at a flow speed of 2 ml/min to wash out the blood. After the first wash out step, recirculation was performed with recombinant adenoviruses (50 μl-1 ml, containing approximately 10^9 infectious units (i.u.)) dissolved in 2.5-3.5 ml Haemaccel at the same flow rate for a time period ranging from 5 to 30 minutes. Followed by a second perfusion step of 5 minutes to wash out the non-bound virus with Haemaccel. […]

| Molecule | effect of addition to the IG.Ad.CMV.rIL-3 perfusion on the antitumor response |
| --- | --- |
| COc1cccc2c1C(=O)c1c(O)c3c(c(O)c1C2=O)C[C@@](O)(C(=O)CO)C[C@@H]3O[C@H]1C[C@H](N)[C@H](O)[C@H](C)O1 [doxorubicin] | does not influence the antitumor response |
| N[C@@H](Cc1ccc(N(CCCl)CCCl)cc1)C(=O)O [melphalan] | does not influence the antitumor response |
| TNFα | does not influence the antitumor response |
